# Key:
# HePTP = target: T1, HePTP (Homo sapiens, UniProt P35236); assay: PTPs activity assay (DiFMUP); type: biochemical
# T1 construct: His; made in house; host or cells: E. coli
# T1 sequence (P35236 1-360): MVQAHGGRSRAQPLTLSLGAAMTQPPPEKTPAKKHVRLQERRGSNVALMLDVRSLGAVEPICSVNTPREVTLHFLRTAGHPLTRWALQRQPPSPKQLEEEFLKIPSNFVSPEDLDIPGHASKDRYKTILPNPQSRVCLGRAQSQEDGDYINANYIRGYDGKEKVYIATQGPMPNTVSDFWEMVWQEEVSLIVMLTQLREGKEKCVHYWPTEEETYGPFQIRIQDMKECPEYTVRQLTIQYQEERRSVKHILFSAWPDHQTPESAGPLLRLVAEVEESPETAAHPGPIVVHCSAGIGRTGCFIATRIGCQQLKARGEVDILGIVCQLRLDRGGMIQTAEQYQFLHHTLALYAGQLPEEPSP
# Method: (§1) Catalytic activity screening methods for PTPs using candidate compounds were performed as previously described.^[ [77] ^] In brief, soluble fusion PTP proteins, His‐ΔSHP2, encompassing the peptide from amino acids 205–593 retaining PTP activity, His‐ΔSHP2^K325A, His‐ΔSHP1, encompassing the peptide from amino acids 202–595 retaining PTP activity, His‐PTP1B, His‐HePTP, His‐VHR, and His‐TCPTP were cloned, expressed, and purified in E. coli. After determining protein concentration using bicinchoninic acid (BCA) assay kit, 1 µg fusion protein, 10 µM library compound were added in 100 µL reaction mixture (55 mM 4‐(2‐hydroxyethyl)‐1‐piperazineethanesulfonic acid [HEPES], 100 mM sodium chloride [NaCl], 0.5 mM ethylenediaminetetraacetic acid [EDTA], 1 mM dithiothreitol [DTT], 0.01% Triton X‐100, 0.002% bovine serum albumin [BSA], and 0.1% dimethyl sulfoxide [DMSO]) and incubated at 37 °C for 30 min in the dark, with Na3VO4 as positive control. The detection substrate DiFMUP (50 µM) was promptly added to each reaction and functioned at 37 °C for 30 min in the dark. The fluorescence intensity was then measured using Multimode Plate Reader (λa = 358 nm, λe = 455 nm, PerkinElmer, USA).
# PTP1B = target: T2, PTP1B (Homo sapiens, UniProt P18031); assay: PTPs activity assay (DiFMUP); type: biochemical; conditions: read-out: IC50 of PTPs PTP1B
# T2 construct: His; made in house; host or cells: E. coli
# T2 sequence (P18031 1-435): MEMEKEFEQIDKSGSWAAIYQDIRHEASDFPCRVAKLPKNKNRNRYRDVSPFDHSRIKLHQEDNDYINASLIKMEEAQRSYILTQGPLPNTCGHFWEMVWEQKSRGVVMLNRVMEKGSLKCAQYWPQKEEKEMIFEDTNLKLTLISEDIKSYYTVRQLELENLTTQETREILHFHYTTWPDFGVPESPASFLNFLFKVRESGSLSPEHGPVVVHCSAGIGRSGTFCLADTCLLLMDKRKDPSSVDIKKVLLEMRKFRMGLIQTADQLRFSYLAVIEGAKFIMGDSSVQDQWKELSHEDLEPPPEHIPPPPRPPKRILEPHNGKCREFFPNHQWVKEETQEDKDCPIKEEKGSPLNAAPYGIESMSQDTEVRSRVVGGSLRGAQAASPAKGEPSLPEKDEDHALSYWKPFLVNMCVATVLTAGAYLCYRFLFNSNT
# Method: as §1
# TCPTP = target: T3, TCPTP (Homo sapiens, UniProt P17706); assay: PTPs activity assay (DiFMUP); type: biochemical
# T3 construct: His; made in house; host or cells: E. coli
# T3 sequence (P17706 1-415): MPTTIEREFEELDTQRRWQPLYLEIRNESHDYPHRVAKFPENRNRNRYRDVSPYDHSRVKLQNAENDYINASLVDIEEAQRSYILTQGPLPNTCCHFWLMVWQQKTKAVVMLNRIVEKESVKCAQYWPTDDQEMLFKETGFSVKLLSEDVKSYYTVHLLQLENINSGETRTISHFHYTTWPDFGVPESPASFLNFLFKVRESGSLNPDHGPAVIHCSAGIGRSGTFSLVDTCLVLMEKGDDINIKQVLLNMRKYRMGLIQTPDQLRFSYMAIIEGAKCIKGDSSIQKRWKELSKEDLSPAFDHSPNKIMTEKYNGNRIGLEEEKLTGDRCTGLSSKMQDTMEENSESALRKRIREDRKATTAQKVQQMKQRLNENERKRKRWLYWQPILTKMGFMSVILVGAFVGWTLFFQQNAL
# Method: as §1
# VHR = target: T4, VHR (Homo sapiens, UniProt P51452); assay: PTPs activity assay (DiFMUP); type: biochemical
# T4 construct: His; made in house; host or cells: E. coli
# Method: as §1
# ΔSHP1 = target: T5, ΔSHP1 (Homo sapiens, UniProt P29350); assay: PTPs activity assay (DiFMUP); type: biochemical
# T5 construct: His‐ΔSHP1, encompassing the peptide from amino acids 202–595 retaining PTP activity; His; made in house; host or cells: E. coli
# Method: as §1
# ΔSHP2 = target: T6, ΔSHP2 (Homo sapiens, UniProt Q06124); assay: PTPs activity assay (DiFMUP); type: biochemical
# T6 construct: His‐ΔSHP2, encompassing the peptide from amino acids 205–593 retaining PTP activity; His; made in house; host or cells: E. coli
# T6 sequence (Q06124 205-593): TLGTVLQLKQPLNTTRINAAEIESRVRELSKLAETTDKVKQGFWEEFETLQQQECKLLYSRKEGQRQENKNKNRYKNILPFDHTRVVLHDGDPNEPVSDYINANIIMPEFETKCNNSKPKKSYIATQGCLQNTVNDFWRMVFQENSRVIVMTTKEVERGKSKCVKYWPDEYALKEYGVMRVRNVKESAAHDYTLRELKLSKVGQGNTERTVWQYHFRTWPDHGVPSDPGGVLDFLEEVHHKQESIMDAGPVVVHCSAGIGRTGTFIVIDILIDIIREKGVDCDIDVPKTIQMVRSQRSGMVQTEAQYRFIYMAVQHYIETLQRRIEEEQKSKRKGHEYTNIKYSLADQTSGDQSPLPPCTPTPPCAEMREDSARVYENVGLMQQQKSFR
# Method: as §1
# [1] = system: A549, NCI‐H2122, and NCI‐H1944 cells; assay: Effect of candidate drugs on cell viability and colony formation; type: cell-based, human; conditions: 1, 10 and 50 μM viability; 10 µM colony formation
# Method: supplies are listed in Supplementary Table S5. The relevant reagents for protein extraction from Escherichia coli are listed in Supplementary Table S6. Inhibitory effects of embelin on KRAS-mutant and wild-type cells are listed in Supplementary Table S7.
# For the adherent cell viability assay, cells in the logarithmic growth phase were seeded in 96-well culture plates at a density of 5×103 well-1 and incubated overnight. Diluted compounds or DMSO were added, or specific treatments were incubated at 37 °C and 5% CO2 for 24 h or 48 h. Cell viability was determined using CCK-8 or CellLightTM Cell Viability Assay Kit, according to the manufacturer's protocol. The luminescence signals of the treated samples were normalized to those of the DMSO group.
# For spherical cell viability assays, cells in the logarithmic growth phase were inoculated ata density of 4×10^3 well-1 into 96-well spherical cell microplates and incubated at 37 °C, 5% CO2 for 24 h or 48 h. Cell viability was measured using the CellTiter-Glo® Luminescent Cell Viability 3D Cell Viability Assay Kit, according to the manufacturer’s protocol. The remaining steps were the same as those described above.
# Colony formation experiment […]
# Finally, the staining results were recorded using an inverted microscope. […]
# T5 sequence (P29350 202-595, stated change not applied): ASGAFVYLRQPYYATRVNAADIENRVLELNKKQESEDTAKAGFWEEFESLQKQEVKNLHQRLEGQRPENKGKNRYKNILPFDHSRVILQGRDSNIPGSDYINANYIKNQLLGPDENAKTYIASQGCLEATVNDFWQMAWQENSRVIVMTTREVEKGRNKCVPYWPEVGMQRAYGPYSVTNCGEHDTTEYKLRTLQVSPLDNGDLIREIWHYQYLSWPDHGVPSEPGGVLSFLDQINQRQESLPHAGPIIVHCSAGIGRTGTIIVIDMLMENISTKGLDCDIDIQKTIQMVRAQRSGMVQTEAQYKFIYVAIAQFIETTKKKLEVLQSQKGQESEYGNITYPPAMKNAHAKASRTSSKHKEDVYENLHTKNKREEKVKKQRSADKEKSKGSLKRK
# T4 sequence (P51452 whole entry): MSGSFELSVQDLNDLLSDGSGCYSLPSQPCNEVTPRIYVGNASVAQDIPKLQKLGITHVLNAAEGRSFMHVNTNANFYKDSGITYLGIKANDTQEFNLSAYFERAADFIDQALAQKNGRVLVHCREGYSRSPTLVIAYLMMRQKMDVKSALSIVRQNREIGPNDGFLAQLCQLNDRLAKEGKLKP
compound,measurement,setting,value
"CC1=NN(c2ccc(C)c(C)c2)C(=O)/C1=N\Nc1cccc(-c2cccc(C(=O)O)c2)c1O [S2229, Eltrombopag Olamine]",IC50,HePTP,202 µM
same,IC50,PTP1B,145 µM
same,IC50,TCPTP,> 200 µM
same,IC50,VHR,242 µM
same,IC50,ΔSHP1,> 200 µM
same,IC50,ΔSHP2,21.7 µM
same,effect on proliferation of KRAS‐mutation cells,[1],inhibited the proliferation

# Source: PMC12005787, “Synthetic Lethality of SHP2 and XIAP Suppresses Proliferation and Metastasis in KRAS‐mutant Nonsmall Cell Lung Cancer” (Advanced Science, 2025)
